Laboratory results as given in patent US9201014B2, “Development of photostable near-IR cyanine dyes for in vivo imaging” (National University of Singapore, priority 2010, dated 2015).

Assays:
Type in all cases: physicochemical
[1] = Primary screen of SERS intensities of CyNAMLA-functionalized AuNPs (compact Raman scanner); settings: SERS spectra of CyNAMLA-functionalized AuNPs; excitation at 785 nm, laser power 60 mW
Method: FIG. 15 is a graph of the comparative surface-enhanced Raman spectroscopy (SERS) intensities of members of the CyNAMLA library measured with an excitation wavelength of 785 nm and a laser power of 60 mW in a compact Raman scanner.
The CyNAMLA compounds were adsorbed onto AuNPs having a diameter of approximately 60 nm, and the SERS properties of the resulting CyNAMLA-functionalized AuNPs were evaluated using a compact Raman scanner. Among metal nanoparticles, AuNPs are particularly suitable for in vivo applications due to their low toxicity, adaptability to bioconjugation, and reproducible signal intensity and quantification.

[2] = Characterization of the CyNAMLA library (absorbance maximum wavelengths); settings: absorbance maximum wavelength of CyNAMLA library compounds
Method: The amine group of 21 was protected using di-tert-butyl dicarbonate then derivatized with 80 different primary amines (for structures, see FIGS. 14A-14D). After acetylation of the newly-introduced amine, the compounds were treated with a solution of TFA-DCM (1:9) to remove the tert-butylcarbamate protecting group. The deprotected amine was then coupled to lipoic acid to yield CyNAMLA derivatives with an average purity of 90% (for HPLC-determined purities, see Table 6).

[3] = Primary screening of photostability of the CyNA library (time-course fluorescence, 8 h); parameters: F/Fo, fluorescent intensity at 8 hours vs 0 hours: unit: %; settings: 10 μM in HEPES 100 mM pH 7.4, 2% DMSO
How it was run: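 CyNA dyes at 10 μM in 100 mM HEPES pH 7.4 with 2% DMSO irradiated by xenon lamp for 8 h. Fluorescence (ex/em 790-820 nm) read every 10 min; stability given as F8h/Fo.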

[4] = Absorbance and fluorescence maximum wavelengths and quantum yields of the CyNA library; settings: for λabs, absorbance maximum wavelength / λem, fluorescence maximum wavelength: CyNA library; for φ, quantum yield: in DMSO, Cardiogreen as standard
How it was run: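 Absorption and emission maxima and quantum yields of the 80-member amine-derivatized CyNA library were measured on a plate spectrophotometer.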

[5] = Time-course fluorescence measurements (photobleaching rate constants) of CyN and CyNA derivatives in HEPES buffer; settings: for k, rate of photobleaching: 10 μM in 10 mM HEPES pH 7.4, 1% DMSO, pseudo-first order; for kCyN/kCyNA: ratio of photobleaching rate constants, aqueous media
Method: Values were fitted to a non-linear regression one-phase exponential decay (GraphPad Prism 5.0). Detailed statistics for the one-phase decay analysis of the CyN compounds and 1 follow: Photodecomposition rate constants were determined by plotting -ln(F/F0) vs time, and calculated using a pseudo-first order rate equation. See […]., et al., Photochem. Photobiol. 2000, 72, 392-398.

| Raman intensity [1] | λabs (max) [2] [nm] | Structure (SMILES) | further results |
| --- | --- | --- | --- |
| 2455 | 805 | CCCN1/C(=C/C=C2\CCCC(/C=C/C3=[N+](CCCNC(=O)CCCCC4CCSS4)c4ccccc4C3(C)C)=C2N(CCc2ccc(Cl)cc2)C(C)=O)C(C)(C)c2ccccc21.O=C([O-])C(F)(F)F (stereo not shown) [CyNAMLA-677] | – |
| 2109 | 804 | CCCN1/C(=C/C=C2\CCCC(/C=C/C3=[N+](CCCNC(=O)CCCCC4CCSS4)c4ccccc4C3(C)C)=C2N(Cc2ccc(OC)cc2OC)C(C)=O)C(C)(C)c2ccccc21.O=C([O-])C(F)(F)F (stereo not shown) [CyNAMLA-181] | – |
| 1876 | 805 | CCCN1/C(=C/C=C2\CCCC(/C=C/C3=[N+](CCCNC(=O)CCCCC4CCSS4)c4ccccc4C3(C)C)=C2N(CCc2ccc(OC)cc2)C(C)=O)C(C)(C)c2ccccc21.O=C([O-])C(F)(F)F (stereo not shown) [CyNAMLA-395] | – |
| 2271 | 806 | CCCN1/C(=C/C=C2\CCCC(/C=C/C3=[N+](CCCNC(=O)CCCCC4CCSS4)c4ccccc4C3(C)C)=C2N(Cc2ccc3c(c2)OCO3)C(C)=O)C(C)(C)c2ccccc21.O=C([O-])C(F)(F)F (stereo not shown) [CyNAMLA-49] | – |
| 6424 | 806 | CCCN1/C(=C/C=C2\CCCC(/C=C/C3=[N+](CCCNC(=O)CCCCC4CCSS4)c4ccccc4C3(C)C)=C2N(Cc2ccccc2OCC)C(C)=O)C(C)(C)c2ccccc21.O=C([O-])C(F)(F)F (stereo not shown) [CyNAMLA-103] | – |
| 8146 | 806 | CCCN1/C(=C/C=C2\CCCC(/C=C/C3=[N+](CCCNC(=O)CCCCC4CCSS4)c4ccccc4C3(C)C)=C2N(CCc2ccc(Cl)cc2Cl)C(C)=O)C(C)(C)c2ccccc21.O=C([O-])C(F)(F)F (stereo not shown) [CyNAMLA-686] | – |
| 1408 | 804 | CCCN1/C(=C/C=C2\CCCC(/C=C/C3=[N+](CCCNC(=O)CCCCC4CCSS4)c4ccccc4C3(C)C)=C2N(C(C)=O)C(C)CCc2ccccc2)C(C)(C)c2ccccc21.O=C([O-])C(F)(F)F (stereo not shown) [CyNAMLA-275] | – |
| 9679 | 804 | CCCN1/C(=C/C=C2\CCCC(/C=C/C3=[N+](CCCNC(=O)CCCCC4CCSS4)c4ccccc4C3(C)C)=C2N(CCc2ccccc2F)C(C)=O)C(C)(C)c2ccccc21.O=C([O-])C(F)(F)F (stereo not shown) [CyNAMLA-477] | – |

The next lines start with the compound.

| Structure (SMILES) | Raman intensity [1] | λabs (max) [2] [nm] | further results |
| --- | --- | --- | --- |
| CCCCCCCCCCN(C(C)=O)C1=C(/C=C/C2=[N+](CCCNC(=O)CCCCC3CCSS3)c3ccccc3C2(C)C)CCC/C1=C\C=C1\N(CCC)c2ccccc2C1(C)C.O=C([O-])C(F)(F)F (stereo not shown) [CyNAMLA-407] | 3000 | 806 | – |
| CCCN1/C(=C/C=C2\CCCC(/C=C/C3=[N+](CCC)c4ccccc4C3(C)C)=C2N(CCc2ccccn2)C(C)=O)C(C)(C)c2ccccc21.[I-] [CyNA-111] | – | – | F/Fo, fluorescent intensity at 8 hours vs 0 hours [3]: 96; max RFU, maximum relative fluorescence units [3]: 565.6; λabs, absorbance maximum wavelength [4]: 804 nm; λem, fluorescence maximum wavelength [4]: 818 nm; φ, quantum yield [4]: 0.11; k, rate of photobleaching [5]: 3.41e-06 s⁻¹; kCyN/kCyNA [5]: 12 |
| CCCN1/C(=C/C=C2\CCCC(/C=C/C3=[N+](CCCNC(=O)CCCCC4CCSS4)c4ccccc4C3(C)C)=C2N(CC2CCCCC2)C(C)=O)C(C)(C)c2ccccc21.O=C([O-])C(F)(F)F (stereo not shown) [CyNAMLA-382] | 7947 | 804 | – |
| CCCCCCCN(C(C)=O)C1=C(/C=C/C2=[N+](CCCNC(=O)CCCCC3CCSS3)c3ccccc3C2(C)C)CCC/C1=C\C=C1\N(CCC)c2ccccc2C1(C)C.O=C([O-])C(F)(F)F (stereo not shown) [CyNAMLA-277] | 2046 | 804 | – |
| CCCN1/C(=C/C=C2\CCCC(/C=C/C3=[N+](CCC)c4ccccc4C3(C)C)=C2N(CC)C(C)=O)C(C)(C)c2ccccc21.[I-] [CyNA-295] | – | – | F/Fo, fluorescent intensity at 8 hours vs 0 hours [3]: 100; max RFU, maximum relative fluorescence units [3]: 698.6; λabs, absorbance maximum wavelength [4]: 806 nm; λem, fluorescence maximum wavelength [4]: 820 nm; φ, quantum yield [4]: 0.11; k, rate of photobleaching [5]: 3.81e-06 s⁻¹; kCyN/kCyNA [5]: 8 |
| CCCN1/C(=C/C=C2\CCCC(/C=C/C3=[N+](CCCNC(=O)CCCCC4CCSS4)c4ccccc4C3(C)C)=C2N(C(C)=O)C2CCCC2)C(C)(C)c2ccccc21.O=C([O-])C(F)(F)F (stereo not shown) [CyNAMLA-180] | 8236 | 804 | – |
| CCCN1/C(=C/C=C2\CCCC(/C=C/C3=[N+](CCCNC(=O)CCCCC4CCSS4)c4ccccc4C3(C)C)=C2N(CCCN2CCCC2)C(C)=O)C(C)(C)c2ccccc21.O=C([O-])C(F)(F)F (stereo not shown) [CyNAMLA-611] | 18833 | 804 | – |
